Marks after values point to notes of the source that are not given here.
Tests used:
soluble Aβ40 [1] = tested on: soluble Aβ40; design: method as in Townsend et al. [2010]; conditions: 12-month-old Tg2576 mice; 3-month MRK-560 treatment; ref Townsend et al. [2010]; cited from earlier work
soluble Aβ40 [2] = experiment: Soluble (DEA) brain Aβ40 levels in Tg2576 mice after MRK-560, ELISA; type: in vivo, Tg2576 transgenic mice
Description: C57BL/6 female mice (Harlan Laboratories, Horst, The Netherlands), Tg2576 transgenic female mice (Taconics, Georgetown, NY), overexpressing human APP with the Swedish mutation (Hsiao et al. [1996]), and Tg2576 wild-type littermates were used in the experiments. The C57BL/6 and wild-type littermates were only used for pharmacokinetic PK sampling and analysis. The housing environment was humidity- and temperature-controlled with a constant 12-h light/dark cycle. The animals were kept in conventional housing (5–10 mice per cage) and had access to standard rodent chow and tap water ad libitum. The transgenic mice were aged at the local AstraZeneca (AZ) animal facilities. On the day of study, the mice were weighed. MRK-560 (synthesized in-house; AZ) or vehicle was administered by oral gavage. Three types of vehicles were used: (1) 1% MCC/NaCMC (Microcrystalline Cellulose/Sodiumcarboxymethyl Cellulose) +0.6% lipoid S100, (2) 20% HPβCD in 0.1 mol/L Meglumine, and (3) 40% HPβCD in 0.3 mol/L Meglumine. Observations of the animals’ health were made throughout all the experiments. Data from 23 MRK-560 studies were used in this analysis and details of all studies can be found in Table 1. For the AP analysis, data from vehicle and untreated Tg2576 mice from 48 additional (i.e., non-MRK-560) in-house studies were used. The additional dataset consisted of Aβ levels measured in Tg2576 mice of various ages, between 3.5 and 26 months at termination. Details of those data can be found in Appelkvist et al. ([2011]). In total, data from 71 preclinical studies were used.
After blood sampling, mice were sacrificed by decapitation followed by brain samples collection. Cerebellum and olfactory bulbs were removed and the forebrain was divided into left and right hemispheres, weighed, and snap frozen.
Left hemisphere of the cerebrum was sequentially extracted by diethylamine (DEA) followed by formic acid (FA) to obtain soluble and insoluble fractions of Aβ species, respectively. In short, brain tissue was sonicated in 1:18 (w/v) 0.2% DEA and 50 mmol/L NaCl, pH 11.6. After centrifugation (133,000g, 4°C, 1 h), the supernatant (soluble Aβ) was recovered, neutralized to a pH of 8.0 using 2 mol/L Tris-HCl, and immediately frozen to -70°C. The remaining pellet was sonicated in 1:18 (w/v) 70% FA. Homogenates were centrifuged at +4°C for 1 h at 133,000g. Recovered supernatants (insoluble Aβ) were neutralized to pH 7.5 with 1 mol/L Tris at 1:20 (w/v) dilutions, frozen on dry ice, and stored at −70°C until analysis.
Amyloid beta (Aβ40) and Aβ42 concentrations were measured in plasma, in soluble (DEA), and insoluble (FA) brain fractions using commercial sandwich ELISA kits (KHB3482 from Invitrogen, Carlsbad, CA, and RUO80177 from Innogenetics, Gent, Belgium). To compensate for matrix effects, plasma or brain homogenates from non-transgenic mice were used for preparation of standard curves. The lower and higher limits of quantification (LLOQ and HLOQ) were determined for each immunoassay plate based on the lowest and highest standard point, respectively. The coefficient of variation was less than20% and the accuracy was between 80% and 120%.
Statistical comparisons of the vehicle and MRK-560 treatment data were made by unpaired t-tests. The level of significance was set at P < 0.05. All analyses were performed using GraphPad Prism (GraphPad Prism Software Inc., San Diego, CA) and results were reported as mean ± SEM.

[3] = Fraction unbound in brain, rat brain slice uptake method; type: in vitro ADME, Sprague-Dawley rats; conditions: male, Sprague-Dawley, brain slices (coronal slices of striatal areas, 300 μm), observed, 1 μmol/L compound, 37°C, read-out: fu,br (brain unbound fraction)
Method: Determination of the fraction of compound unbound in the brain was determined in a rat brain slice uptake method (Fridén et al. [2009]; Borgegård et al. [2011]). In short, male Sprague-Dawley rats were decapitated under isoflurane anesthesia. The brains were immersed in an ice-cold oxygenated extracellular fluid (ECF) buffer. Coronal slices of the striatal areas (300 μm) were preincubated in a 10 mL ECF buffer for 5 min at 37°C followed by incubation with 1 μmol/L compound in an ECF buffer for 5 h at 37°C under 5% CO2 in oxygen. After incubation, brain slices were weighed and homogenized in nine volumes (w/v) of ECF buffer. The slice homogenates and ECF buffer were stored at −20°C prior to analysis. To 50 μL homogenized tissue, 150 μL ice-cold acetonitrile containing an internal standard was added in a precipitation plate. After mixing and centrifugation (4°C, 4000 rpm, 20 min), supernatant was transferred to the analysis plate and analyzed by LC/MS/MS.

total Aβ40 = tested on: total Aβ40; design: method as in Best et al. [2007]; conditions: 12-month-old Tg2576 mice; ref Best et al. [2007]; cited from earlier work

O=S(=O)(NC1CCC(c2cc(F)ccc2F)(S(=O)(=O)c2ccc(Cl)cc2)CC1)C(F)(F)F (stereo not drawn) [MRK-560, N-[cis-4-[(4-chlorophenyl)-sulfonyl]-4-(2,5-difluorophenyl)cyclohexyl]-1,1,1-trifluoromethanesulfonamide]
decrease in soluble Aβ40 levels (soluble Aβ40 [1]): 63%
decrease from baseline in soluble Aβ40 levels (soluble Aβ40 [2]; 70 μmol/kg single dose, young mice, 6 h after dosing): 74%
Effect on soluble Aβ40 (soluble Aβ40 [2]; study 7, Tg2576, 20 weeks at start, 70 μmol/kg p.o., 4 days, 3 h since last dosing, P < 0.05): −72 ^* %
Effect on soluble Aβ40 (soluble Aβ40 [2]; study 8, Tg2576, 24 weeks at start, 0.5 μmol/kg p.o., 30 days, 3 h since last dosing): −6%
Effect on soluble Aβ40 (soluble Aβ40 [2]; study 8, Tg2576, 24 weeks at start, 6 μmol/kg p.o., 30 days, 3 h since last dosing, P < 0.05): −45.6 ^* %
Effect on soluble Aβ40 (soluble Aβ40 [2]; study 9, Tg2576, 24 weeks at start, 0.5 μmol/kg p.o., 94 days, 3 h since last dosing): −17%
Effect on soluble Aβ40 (soluble Aβ40 [2]; study 9, Tg2576, 24 weeks at start, 6 μmol/kg p.o., 94 days, 3 h since last dosing): −28%
Effect on soluble Aβ40 (soluble Aβ40 [2]; study 10, Tg2576, 24 weeks at start, 1 μmol/kg p.o., 29 days, 3 h since last dosing, P < 0.05): −26 ^* %
Effect on soluble Aβ40 (soluble Aβ40 [2]; study 10, Tg2576, 24 weeks at start, 3 μmol/kg p.o., 29 days, 3 h since last dosing, P < 0.05): −41 ^* %
Effect on soluble Aβ40 (soluble Aβ40 [2]; study 10, Tg2576, 24 weeks at start, 6 μmol/kg p.o., 29 days, 3 h since last dosing, P < 0.05): −47 ^* %
Effect on soluble Aβ40 (soluble Aβ40 [2]; study 11, Tg2576, 24 weeks at start, 6 μmol/kg p.o., 30 days, 3 h since last dosing, P < 0.05): −40 ^* %
Effect on soluble Aβ40 (soluble Aβ40 [2]; study 12, Tg2576, 25 weeks at start, 70 μmol/kg p.o., 1 day, 3 h since last dosing, P < 0.05): −76 ^* %
Effect on soluble Aβ40 (soluble Aβ40 [2]; study 13, Tg2576, 25 weeks at start, 1 μmol/kg p.o., 4 days, 3 h since last dosing, P < 0.05): −41 ^* %
Effect on soluble Aβ40 (soluble Aβ40 [2]; study 13, Tg2576, 25 weeks at start, 3 μmol/kg p.o., 4 days, 3 h since last dosing, P < 0.05): −56 ^* %
Effect on soluble Aβ40 (soluble Aβ40 [2]; study 13, Tg2576, 25 weeks at start, 7.5 μmol/kg p.o., 4 days, 3 h since last dosing, P < 0.05): −69 ^* %
Effect on soluble Aβ40 (soluble Aβ40 [2]; study 14, Tg2576, 25 weeks at start, 70 μmol/kg p.o., 1 day, samples 3, 6, 24, 48, 120 h (text: 74% at 6 h), P < 0.05): −74 ^* %
Effect on soluble Aβ40 (soluble Aβ40 [2]; study 15, Tg2576, 36 weeks at start, 6 μmol/kg p.o., vehicle 3, 8 days, 3 h since last dosing, P < 0.05): −50 ^* %
Effect on soluble Aβ40 (soluble Aβ40 [2]; study 16, Tg2576, 60 weeks at start, 6 μmol/kg p.o., 4 days, 3 h since last dosing): −17%
Effect on soluble Aβ40 (soluble Aβ40 [2]; study 17, Tg2576, 68 weeks at start, 6 μmol/kg p.o., 4 days, 3 h since last dosing): −6.3%
Effect on soluble Aβ40 (soluble Aβ40 [2]; study 18, Tg2576, 81–89 weeks at start, 70 μmol/kg p.o., 1 day, samples 6, 24, 48, 96 h, time of this value not given): 8%
Effect on soluble Aβ40 (soluble Aβ40 [2]; study 19, Tg2576, 32 weeks at start, 30 μmol/kg p.o., 4 days, 4.5 h since last dosing, P < 0.05): −55 ^* %
Effect on soluble Aβ40 (soluble Aβ40 [2]; study 20, Tg2576, 32 weeks at start, 30 μmol/kg p.o., 21 days, 4.5 h since last dosing, P < 0.05): −70 ^* %
Effect on soluble Aβ40 (soluble Aβ40 [2]; study 21, Tg2576, 36 weeks at start, 6 μmol/kg p.o., vehicle 3, 8 days, 3 h since last dosing, P < 0.05): −63 ^* %
Effect on soluble Aβ40 (soluble Aβ40 [2]; study 22, Tg2576, 24–28 weeks at start, 30 μmol/kg p.o., 45 days, 4.5 h since last dosing, P < 0.05): −57 ^* %
Effect on soluble Aβ40 (soluble Aβ40 [2]; study 23, Tg2576, 37–40 weeks at start, 30 μmol/kg p.o., 28 days, 4.5 h since last dosing, P < 0.05): −56 ^* %
fraction unbound at 5 h, 1 μmol/L [3]: 0.0067
decrease in total Aβ40 levels (total Aβ40): 43%

From PMC4186430, “Modeling of age-dependent amyloid accumulation and γ-secretase inhibition of soluble and insoluble Aβ in a transgenic mouse model of amyloid deposition” (Pharmacology Research & Perspectives, 2013)
